Here are results for 106 molecules from PubChem BioAssay AID1996.

≈ marks a conversion by molar mass, not a printed value.

The conditions of this data set: buffer; pH 7.4; 200.0 µM.
Molecule `CCOc1ccc(Nc2nc(N)c([N+](=O)[O-])c(N3CCOCC3)n2)cc1` showed a solubility (kinetic) of 2.4 µg/mL (≈ 6.66 µM).

Turning to `COC(=O)c1c(NC(C)=O)csc1C`, the solubility (kinetic) is 29.2 µg/mL (≈ 137 µM). Molecule `COc1ccc(C(=O)NC(=S)SCC(=O)O)cc1` showed a kinetic solubility greater than 42.8 µg/mL. In turn, `O=C(COC(=O)C1CC2CCCC(C1)C2=O)Nc1ccccc1` (stereo unspecified) showed a solubility (kinetic) of 46.5 µg/mL (≈ 147 µM). For `COc1ccc(CN2C(=O)c3ccccc3C2=O)cc1` the value was 6 µg/mL (≈ 22.4 µM); for `CSCCC(NC(=O)c1ccco1)C(=O)NCCc1ccc(Cl)cc1` (stereo unspecified), 19.6 µg/mL (≈ 51.5 µM).

Consider `Cc1cccc(NC(=O)c2ccc(-c3ccccc3[N+](=O)[O-])o2)c1`, for which the kinetic solubility is 12.8 µg/mL (≈ 39.7 µM). Under `Cl.Fc1ccc(Nc2nc(NCc3ccco3)c3ccccc3n2)cc1` stands 2.1 µg/mL; under `CCc1noc(N)c1C(=O)Nc1ccc(Cl)cc1`, greater than 39.9 µg/mL; under `Cc1ccsc1/C=C1\SC(=S)N(CC2CCCO2)C1=O` (stereo unspecified), less than 0.7 µg/mL. For `Cc1cc(Br)ccc1N=C1NC(=O)CS1` the value was greater than 42.8 µg/mL. Molecule `O=C(CSc1ccc(-c2ccc(F)cc2)nn1)NCC1CCCO1` (stereo unspecified) returned a kinetic solubility greater than 52.1 µg/mL. For `Cc1ccc(NC(=O)c2cnccn2)cc1C` the value was 31.7 µg/mL (≈ 139 µM); for `COc1ccccc1CNC(=O)C1(C)Oc2cccnc2NC1=O` (stereo unspecified), greater than 49.1 µg/mL. Under `O=C(O)c1cccnc1SCc1cccc(Br)c1` stands greater than 48.6 µg/mL; under `O=C(Nc1ccsc1C(=O)N1CCCC1)c1ccccc1`, less than 0.3 µg/mL.

`O=C1C(=O)N(CCCc2ccccc2)c2ccccc21` had a kinetic solubility of 32.5 µg/mL (≈ 122 µM).

As for `O=C1NC2(CCCCC2)N(C(=O)c2ccccc2)C2=C1CCCC2`, the kinetic solubility was 8.1 µg/mL (≈ 25 µM). Under `Brc1ccc2ncnc(NCc3cccnc3)c2c1` stands 34.3 µg/mL (≈ 109 µM). Under `O=C(CNC(=O)c1ccco1)N/N=C/c1ccc(O)cc1O` stands greater than 45.5 µg/mL. For `Cc1ccc(OCC(=O)O/N=C(\N)c2cccc([N+](=O)[O-])c2)cc1C` the value was 1.8 µg/mL (≈ 5.24 µM). Molecule `O=C(NCC(c1ccco1)N1CCc2ccccc2C1)c1cccc(F)c1` (stereo unspecified) had a solubility (kinetic) of 28.7 µg/mL (≈ 78.8 µM). This solubility kinetic is about 16-fold higher than that of the molecule before.

`COc1ccc(CC(=O)OCC(=O)NC2CCCCC2)cc1OC` yielded a solubility (kinetic) greater than 50.3 µg/mL. For `COc1ccc2[nH]cc(CCNC(=O)Cc3ccc(F)cc3)c2c1` the value was 25.4 µg/mL (≈ 77.8 µM); for `CC(=O)Nc1ccc(NC(=O)COC(=O)C2CCC(C(C)(C)C)CC2)cc1` (stereo unspecified), 3.7 µg/mL (≈ 9.88 µM); for `CCCc1cc(=O)[nH]c(SCc2ccc(F)cc2)n1`, 3.2 µg/mL (≈ 11.5 µM).

Molecule `COc1ccc(C(=O)N(c2ccc(C)cc2)C2C=CS(=O)(=O)C2)cc1OC` (stereo unspecified) returned a solubility (kinetic) of 55.3 µg/mL (≈ 143 µM).

The molecule `CC(=O)NC1(c2ccccc2)CCN(CC(=O)N2CCC(C)CC2)CC1` came in with a solubility (kinetic) greater than 53.6 µg/mL. For `CCOC(=O)C1CCN(C(=O)C(C)Sc2nnc3ccccn23)CC1` (stereo unspecified) the value was greater than 54.4 µg/mL. Under `C=CCn1c(/N=C/c2ccc(OC)cc2)nc2ccccc21` stands 40.6 µg/mL (≈ 139 µM); under `O=C1CNC(=S)N1c1nc2ccccc2s1`, 31.6 µg/mL (≈ 127 µM). Under `CC(C)c1ccc(CNC(=O)CCc2ccccc2)cc1` stands 31.2 µg/mL (≈ 111 µM); under `Cc1cccc2c3c([nH]c12)CCNC3.Cl`, greater than 33.4 µg/mL.

`O=[N+]([O-])c1ccccc1/C=C/CN1CCCC(CO)C1` (stereo unspecified) came in with a kinetic solubility of 33.2 µg/mL (≈ 120 µM). Under `CC(=O)c1c(C)oc2ccc(NS(=O)(=O)c3ccccc3)cc12` stands less than 0.7 µg/mL; under `O=C(NCC1OCCc2ccccc21)C1COc2ccccc2O1` (stereo unspecified), greater than 48.8 µg/mL.

In turn, `O=S(=O)(c1ccc2c(c1)CCCN2)N1CCCC1` showed a kinetic solubility greater than 40 µg/mL. Under `CCCN1CCC(NC(=O)Nc2cccc3ccccc23)CC1` stands greater than 46.7 µg/mL; under `O=C(CN1CCN(Cc2ccccc2)CC1)Nc1ccccc1`, greater than 46.4 µg/mL. Under `C=C(C)CN1C(=O)C2(OCCO2)c2cc(Br)ccc21` stands 41.1 µg/mL (≈ 127 µM). Under `Cc1ncc([N+](=O)[O-])n1CC(=O)N/N=C/c1ccccc1F` stands greater than 45.8 µg/mL; under `CCC(C)NC(=O)c1ccc2c(c1)N(Cc1ccccc1)C(=O)CS2` (stereo unspecified), 3.6 µg/mL (≈ 10.2 µM); under `COC(=O)Cc1ccc(NC(=S)N2CCN(c3ccccn3)CC2)cc1`, 5 µg/mL (≈ 13.5 µM).

On to `COc1ccc(OC)c(N=Cc2c(O)[nH]c(=O)[nH]c2=O)c1`, for which the kinetic solubility turned out to be 7.1 µg/mL (≈ 24.4 µM). For `C/C(=N\NC(=O)c1cccnc1)c1cccc([N+](=O)[O-])c1` the value was greater than 42.6 µg/mL. Under `Cc1cccc(C)c1N1C(=O)CN(Cc2ccccc2)C1=S` stands 27.8 µg/mL (≈ 89.6 µM). For `Cc1ccc(NC(=O)C2CCCN2C(=O)NC2CCCCC2)cc1F` (stereo unspecified) the value was 0.9 µg/mL (≈ 2.59 µM); for `COc1cc(/C=C(\C#N)c2nc3ccccc3[nH]2)ccc1O`, 4.9 µg/mL (≈ 16.8 µM). For `O=C(NCCc1ccccc1)c1cc2ccccc2oc1=O`, the solubility (kinetic) was less than 0.6 µg/mL.

`Cc1cc(C)nc(SCC(=O)c2ccc(F)cc2F)n1` had a kinetic solubility greater than 44.1 µg/mL. Molecule `FC(c1nc2ccccc2[nH]1)C(F)(F)F` (stereo unspecified) displayed a solubility (kinetic) greater than 32.7 µg/mL. For `CN(C)C(CNS(=O)(=O)c1ccc(Cl)cc1F)c1ccco1.Cl` (stereo unspecified) the value was greater than 57.5 µg/mL; for `O=Cc1ccccc1OCCN1CCCC1=O`, 33.8 µg/mL (≈ 145 µM). Under `CN1CCCN(c2ccc([N+](=O)[O-])nc2)CC1` stands greater than 35.4 µg/mL; under `O=C(O)CCSc1ncnc2sc(-c3ccccc3)cc12`, greater than 47.5 µg/mL. Under `O=C(COC(=O)c1cccnc1Cl)NC1CCCCCC1` stands greater than 46.6 µg/mL; under `O=C(CCc1ccccc1)N1CCN(c2ccc(F)cc2)CC1`, greater than 46.9 µg/mL; under `CCc1ccc(NC(=S)NCc2ccccc2)cc1`, 27.4 µg/mL (≈ 101 µM).

Molecule `O=C1c2ccccc2CN1Cc1ccccc1` displayed a kinetic solubility greater than 33.5 µg/mL. The molecule `NC(=O)CCC(NC(=S)Nc1ccccc1)C(=O)O` (stereo unspecified) came in with a solubility (kinetic) of 39.3 µg/mL (≈ 140 µM). Under `CC(=O)c1c(C)[nH]c(C(=O)COC(=O)c2c(C)noc2C)c1C` stands 5.4 µg/mL (≈ 17 µM).

`O=C(NCCc1ccccc1)C(=O)NCC1CCNCC1` came in with a solubility (kinetic) greater than 43.4 µg/mL. For `Cc1cccc(C)c1OCC(=O)Nc1ccc2c(c1)C(=O)NC2=O` the value was 1.2 µg/mL (≈ 3.7 µM); for `CC(Oc1ccccc1)C(=O)N1CCc2ccccc2C1` (stereo unspecified), greater than 42.2 µg/mL.

For the molecule `CCc1ccc(C(=O)COC(=O)CNC(=O)C2CCCCC2)cc1`, the solubility (kinetic) is 18.1 µg/mL (≈ 54.6 µM). For `Cc1cc(=O)[nH]c2ccc(S(=O)(=O)NC3CCCCC3)cc12` the value was 4.5 µg/mL (≈ 14 µM). With `Cl.c1ccc2c(c1)OCC(C1=NCCN1)O2` (stereo unspecified), the kinetic solubility is greater than 36.1 µg/mL.

For `CCOC(=O)C1=C(C)N(CC(C)C)C(=O)C1`, the kinetic solubility is greater than 33.8 µg/mL. `COCCCNC(=S)NCCc1ccc(F)cc1` yielded a solubility (kinetic) greater than 40.6 µg/mL.

For the molecule `O=S(=O)(NC1CCCCCCC1)c1ccccc1`, the kinetic solubility came out at 30 µg/mL (≈ 112 µM). Regarding `CC1C(=O)N2CCCc3cc(NC(=O)COc4ccccc4)cc1c32` (stereo unspecified), the solubility (kinetic) is 50.2 µg/mL (≈ 149 µM). For `COc1ccc(-c2csc(N3CCSCC3)n2)cc1` the value was 0.3 µg/mL (≈ 1.03 µM).

`CC(=O)Nc1c(Cl)cnn(-c2ccccc2)c1=O`: the kinetic solubility was greater than 39.6 µg/mL. For `Cc1c(Cc2ccc3c(c2)OCO3)sc(NC(=O)C2CC2)c1C(N)=O` the value was 1.8 µg/mL (≈ 5.02 µM); for `O=C(c1ccc(F)cc1)c1ccc(-c2ccc(F)cc2)nc1`, 0.9 µg/mL (≈ 3.05 µM); for `O=C(c1ccccc1)c1ncc[nH]1`, greater than 25.8 µg/mL.

Molecule `O=C(NC(=S)Nc1ccccc1Br)C1CCCCC1` showed a solubility (kinetic) of 2.2 µg/mL (≈ 6.45 µM). For `Cn1cccc1C(=O)NCc1ccc(S(N)(=O)=O)cc1` the value was greater than 44 µg/mL; for `CC(C)c1ccccc1OCCCN1CCCC1.O=C(O)C(=O)O`, 47 µg/mL.

Consider `Cn1nc(C(=O)NC2CCC(O)CC2)c2ccccc2c1=O` (stereo unspecified), for which the kinetic solubility is greater than 45.2 µg/mL. Under `O=C(COC(=O)Cc1ccc(S(=O)(=O)N2CCOCC2)s1)Nc1ccccc1Cl` stands greater than 68.8 µg/mL; under `Oc1ccc(-c2nccc(-c3ccccn3)n2)cc1`, 12.6 µg/mL (≈ 50.5 µM).

On to `C/C=C/c1ccc(OCCCCN2CCC(C)CC2)c(OC)c1`, for which the solubility (kinetic) is 33.9 µg/mL (≈ 107 µM). Under `CCc1ccc(CNC(=O)CCc2cn(C)c3ccccc23)cc1` stands 1.2 µg/mL (≈ 3.74 µM); under `CC(NC(=O)c1ccco1)C(=O)OCc1cccc(C(F)(F)F)c1` (stereo unspecified), greater than 51.2 µg/mL. Under `CN(C)CCOC(C)(c1ccccc1)c1ccccn1.O=C(O)CCC(=O)O` (stereo unspecified) stands greater than 58.3 µg/mL; under `CSc1ncccc1C(=O)OCC(=O)N1CCN(C(=O)c2ccco2)CC1`, greater than 58.4 µg/mL; under `O=C(Nc1ccccc1C(=O)N1CCCCCC1)c1ccccc1`, greater than 48.4 µg/mL. Under `Br.C=CCN1C2=NCCCN2c2ccccc21` stands greater than 44.1 µg/mL. Molecule `CN(C)C(=O)CSc1nc2cc(S(=O)(=O)N3CCOCC3)ccc2o1` gave a solubility (kinetic) greater than 57.8 µg/mL. For `O=C(O)c1ccc(NC(=O)C2(c3ccccc3)CCCC2)cc1` the value was greater than 46.4 µg/mL.

In turn, `CC(C)=CCN1CCN(Cc2cccc3c2OCO3)CC1CCO` (stereo unspecified) gave a solubility (kinetic) of 36.5 µg/mL (≈ 110 µM).

As to `COC(=O)C(CC(=O)O)NCc1ccco1` (stereo unspecified), the solubility (kinetic) was greater than 34.1 µg/mL.

As for `N#Cc1c(N2CCCC2)ccc(Br)c1Cl`, the kinetic solubility is less than 0.3 µg/mL.

In turn, `C[n+]1cccc(C(=O)Nc2ccccc2)c1.[Cl-]` displayed a solubility (kinetic) of 30 µg/mL. For `O=C(NC1CCCCC1)C(=S)NCCc1ccccc1` the value was 1.4 µg/mL (≈ 4.82 µM); for `CCC(=O)N(Cc1cc2ccccc2[nH]c1=O)c1ccccc1OC`, 32.2 µg/mL (≈ 95.7 µM); for `COc1ccc(OC)c(S(=O)(=O)NC2CC2)c1`, greater than 38.6 µg/mL.

Molecule `COc1ccccc1C(=O)COC(=O)COc1ccc(C#N)cc1` showed a solubility (kinetic) greater than 48.8 µg/mL. For `COc1cccc(-c2nc(N3CCCC3)c3ccccc3n2)c1O`, the kinetic solubility was less than 0.2 µg/mL. In the case of `O=C(NC(=O)N1CCCCCC1)c1ccc(Cl)cc1`, the solubility (kinetic) was greater than 42.1 µg/mL. Under `CCOC(CNc1ncnc2sc(-c3ccccc3)cc12)OCC` stands 18.6 µg/mL (≈ 54.2 µM); under `COc1ccccc1Oc1ccc2c(c1)C(=O)N(CC(=O)O)C2=O`, greater than 49.1 µg/mL. For `CCOP(=O)(c1ccc(N(C)C)cc1)C(O)c1ccncc1` (stereo unspecified) the value was greater than 48 µg/mL.

As to `COc1ccccc1OCCNC(=O)CC(NC(C)=O)c1ccccc1` (stereo unspecified), the kinetic solubility amounted to 53.4 µg/mL (≈ 150 µM).

For `C#CCn1cccc(C(=O)Nc2ccc(OC)cc2)c1=O`, the kinetic solubility is 6.3 µg/mL (≈ 22.3 µM).

The kinetic solubility is solubility judged after dilution from a stock solution rather than from solid.
